How the values were obtained:
squid giant axon = test: Axonal transport of injected fluorescent bead cargo, confocal time-lapse; type: cell-based, North Atlantic Long-Finned Squid (Loligo pealleii)
[1] = target: APP-C peptide of the affinity measurement (15 aa; human or squid sequence not told); test: pull-down

Kd [1] | Substance | Run length (squid giant axon; calculated as v1/k1) | Detachment rate k1 (squid giant axon; from average run time, Poisson distribution, run v1 > 0.1 μm s^−1, about 40 runs)
– | GYENPTYKFFEQMQN [hAPP-C] | 11.5 μm | 0.0322 s⁻¹
4.7 nM | kinesin-1 of rat brain extract (from UniProt Q2PQA9 1-963) (complex) | – | –

Reference: publication PMC3625656 (Physical biology, 2012)
